A short description of series [1]: Human liver microsome (HLM) metabolic stability assay. It counts as in vitro ADME. Particulars: human liver microsomes. The procedure, abridged: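 Compound at 1 uM incubated with human liver microsomes at 37° C. for 60 min after NADPH addition. Aliquots quenched in cold acetonitrile at 0, 5, 15, 30 and 60 min and analysed by LC/MS/MS. t1/2 from ln(% remaining) vs time slope; CLint, CLh and % Qh derived from it (n=1).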

The target in series [2] is human soluble guanylate cyclase alpha 1 and beta 1 subunits (sGC) (Homo sapiens (Human), UniProt Q02108+Q02153). Kind of series: sGC cellular activator assay (cGMP, HTRF), in the presence and absence of 50% human serum. It counts as cell-based. Particulars: CHO cells stably expressing human sGC alpha 1/beta 1, preincubated with 40 microM ODQ; cGMP by HTRF; Table 2 does not state whether with or without 50% human serum. In short, it runs like this: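 Heme-oxidized conditions: ODQ (40 microM, 1 h) pretreatment of CHO cells stably expressing human α1/β1 sGC, in buffer containing 0.1% BSA and IBMX.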

The nature of series [3]: physchem. Particulars: kinetic from dmso stock.
Where [4] appears, read: pH 2.2, aqueous buffer, Solubility (pH 2.2).
Where [5] appears, read: pH 4.5, aqueous buffer, Solubility (pH 4.5).
[6] abbreviates: pH 6.8, aqueous buffer, Solubility (pH 6.8).

19 molecules from US9353090B2, “Heterocyclic carboxylic acids as activators of soluble guanylate cyclase” (Boehringer Ingelheim International GmbH, priority 2014, dated 2016) can be followed below.

≈ marks a conversion by molar mass, not a printed value.

Chain of human soluble guanylate cyclase alpha 1 and beta 1 subunits (sGC) (Q02108 whole entry partner): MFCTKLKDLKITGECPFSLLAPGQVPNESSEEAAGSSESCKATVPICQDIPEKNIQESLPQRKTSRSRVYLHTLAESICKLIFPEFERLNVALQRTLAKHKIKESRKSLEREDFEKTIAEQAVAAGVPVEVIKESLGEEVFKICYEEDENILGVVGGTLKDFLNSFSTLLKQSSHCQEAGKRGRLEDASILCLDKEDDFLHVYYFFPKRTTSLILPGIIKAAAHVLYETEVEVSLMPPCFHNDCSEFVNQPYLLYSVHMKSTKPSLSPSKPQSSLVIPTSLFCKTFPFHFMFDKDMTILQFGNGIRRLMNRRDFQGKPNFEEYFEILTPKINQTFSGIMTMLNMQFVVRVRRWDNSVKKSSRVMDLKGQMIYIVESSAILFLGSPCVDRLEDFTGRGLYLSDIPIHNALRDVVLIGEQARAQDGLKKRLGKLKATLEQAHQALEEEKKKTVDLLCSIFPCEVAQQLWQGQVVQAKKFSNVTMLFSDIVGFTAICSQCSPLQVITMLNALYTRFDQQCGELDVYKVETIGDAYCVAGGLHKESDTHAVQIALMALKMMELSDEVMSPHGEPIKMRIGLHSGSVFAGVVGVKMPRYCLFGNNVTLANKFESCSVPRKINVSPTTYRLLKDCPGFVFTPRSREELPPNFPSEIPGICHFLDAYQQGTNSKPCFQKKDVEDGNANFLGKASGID
Chain of human soluble guanylate cyclase alpha 1 and beta 1 subunits (sGC) (Q02153 whole entry): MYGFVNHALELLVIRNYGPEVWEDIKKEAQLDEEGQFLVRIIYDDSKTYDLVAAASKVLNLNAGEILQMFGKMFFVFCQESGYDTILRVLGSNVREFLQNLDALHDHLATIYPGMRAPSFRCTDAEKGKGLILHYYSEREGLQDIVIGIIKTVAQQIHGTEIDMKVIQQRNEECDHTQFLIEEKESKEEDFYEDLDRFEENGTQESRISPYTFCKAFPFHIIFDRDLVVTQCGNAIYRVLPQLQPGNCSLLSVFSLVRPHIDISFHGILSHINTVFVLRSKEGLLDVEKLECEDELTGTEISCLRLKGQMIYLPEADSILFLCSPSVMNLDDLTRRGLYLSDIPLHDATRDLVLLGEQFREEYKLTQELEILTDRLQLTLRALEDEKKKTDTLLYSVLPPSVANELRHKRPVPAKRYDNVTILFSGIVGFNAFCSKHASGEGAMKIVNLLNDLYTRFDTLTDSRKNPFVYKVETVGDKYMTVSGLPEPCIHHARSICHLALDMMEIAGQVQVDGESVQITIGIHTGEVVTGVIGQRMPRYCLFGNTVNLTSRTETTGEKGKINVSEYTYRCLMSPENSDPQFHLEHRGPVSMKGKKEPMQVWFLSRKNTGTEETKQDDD

For `COC[C@H]1N(c2cccc(-c3cccc(C)c3OCc3ccc4c(c3)[C@H](C)CN(C3CCOCC3)CC4)n2)C[C@@H]2C[C@@]21C(=O)O` [Compound 226], the “Metabolic stability (Qh %), % hepatic blood flow” value (“Metabolic stability (Qh %)” below) in series [1] is <24%. This molecule had an EC50 in series [2] of 6 nM. For the same molecule, the solubility at 24 h is 145 µg/mL (≈ 237 µM) in series [3] (setting [4]), 142 µg/mL (≈ 231 µM) in series [3] (setting [5]) and 134 µg/mL (≈ 219 µM) in series [3] (setting [6]).
Consider `COC[C@H]1N(c2cccc(-c3cccc(C(F)(F)F)c3OCc3cc(C)c4c(c3)CCN(C3COC3)C4)n2)C[C@@H]2C[C@@]21C(=O)O` [Compound 227], for which the “Metabolic stability (Qh %)” value in series [1] was 30%. Besides, the response in series [2] was half-maximal at 9 nM (EC50). The solubility at 24 h was 142 µg/mL (≈ 228 µM) in series [3] (setting [4]), 128 µg/mL (≈ 205 µM) in series [3] (setting [5]) and 138 µg/mL (≈ 221 µM) in series [3] (setting [6]).
In the case of `CCO[C@@H]1CN(c2nc(-c3cccc(C)c3OCc3cc4c(c(OC)c3)CN(C3CCOCC3)CC4)cs2)CC[C@@H]1C(=O)O` [Compound 228], the “Metabolic stability (Qh %)” value in series [1] is given as <24%. The molecule further yielded an EC50 in series [2] of 6 nM. In addition, the values for the solubility at 24 h in series [3] (setting [4]), in series [3] (setting [5]) and in series [3] (setting [6]) were 148 µg/mL (≈ 239 µM), 114 µg/mL (≈ 183 µM) and 107 µg/mL (≈ 172 µM), respectively.
On to `CCO[C@@H]1CN(c2nc(-c3cc(C)ccc3OCc3cc4c(c(OC)c3)CN(C3CCOCC3)CC4)cs2)CC[C@@H]1C(=O)O` [Compound 229], for which the “Metabolic stability (Qh %)” value in series [1] is <24%. This molecule also registered an EC50 in series [2] of 4 nM. Moreover, the solubility at 24 h was determined as 122 µg/mL (≈ 196 µM) in series [3] (setting [4]), 116 µg/mL (≈ 187 µM) in series [3] (setting [5]) and 114 µg/mL (≈ 184 µM) in series [3] (setting [6]).
Turning to `CCO[C@@H]1CN(c2cccc(-c3cccc(C)c3OCc3cc4c(c(OC)c3)CN(C3CCOCC3)CC4)n2)CC[C@@H]1C(=O)O` [Compound 230], the “Metabolic stability (Qh %)” value in series [1] amounted to 83%. Also, the midpoint of the response in series [2], the EC50, lay at 6 nM. Moreover, the solubility at 24 h in series [3] (setting [4]) stood at 131 µg/mL (≈ 213 µM); in series [3] (setting [5]), 128 µg/mL (≈ 209 µM); in series [3] (setting [6]), 120 µg/mL (≈ 194 µM).
For `CCO[C@@H]1CN(c2cccc(-c3cc(C)ccc3OCc3cc4c(c(OC)c3)CN(C3CCOCC3)CC4)n2)CC[C@@H]1C(=O)O` [Compound 231], the “Metabolic stability (Qh %)” value in series [1] is 58%. Further, in series [2], a half-maximal response (EC50) required 13 nM. Further, the values for the solubility at 24 h in series [3] (setting [4]), in series [3] (setting [5]) and in series [3] (setting [6]) were 126 µg/mL (≈ 205 µM), 126 µg/mL (≈ 205 µM) and 121 µg/mL (≈ 196 µM), respectively.
Consider `CCO[C@H]1CN(c2nc(-c3cccc(C)c3OCc3cc4c(c(OC)c3)CN(C3CCOCC3)CC4)cs2)CC[C@H]1C(=O)O` [Compound 232], for which the “Metabolic stability (Qh %)” value in series [1] is <24%. In addition, in series [2], the EC50 stood at 330 nM. Also, the solubility at 24 h in series [3] (setting [4]) came out at 142 µg/mL (≈ 229 µM); in series [3] (setting [5]), 131 µg/mL (≈ 211 µM); in series [3] (setting [6]), 131 µg/mL (≈ 211 µM).
Take `CCO[C@H]1CN(c2nc(-c3cc(C)ccc3OCc3cc4c(c(OC)c3)CN(C3CCOCC3)CC4)cs2)CC[C@H]1C(=O)O` [Compound 233]: in series [1], the “Metabolic stability (Qh %)” value is <24%. The same molecule yielded an EC50 in series [2] of 190 nM. Moreover, the solubility at 24 h amounted to 135 µg/mL (≈ 217 µM) in series [3] (setting [4]), 124 µg/mL (≈ 200 µM) in series [3] (setting [5]) and 122 µg/mL (≈ 197 µM) in series [3] (setting [6]).
As to `CCO[C@H]1CN(c2cccc(-c3cccc(C)c3OCc3cc4c(c(OC)c3)CN(C3CCOCC3)CC4)n2)CC[C@H]1C(=O)O` [Compound 234], the “Metabolic stability (Qh %)” value in series [1] was 55%. The same molecule showed an EC50 in series [2] of 257 nM. Besides, the solubility at 24 h in series [3] (setting [4]) was 128 µg/mL (≈ 207 µM); in series [3] (setting [5]) it was 124 µg/mL (≈ 201 µM); in series [3] (setting [6]), 117 µg/mL (≈ 190 µM).
Taken in the same sequence, the figures for `CCO[C@H]1CN(c2cccc(-c3cc(C)ccc3OCc3cc4c(c(OC)c3)CN(C3CCOCC3)CC4)n2)CC[C@H]1C(=O)O` [Compound 235] were 50%, 680 nM, 128 µg/mL (≈ 208 µM), 127 µg/mL (≈ 206 µM) and 119 µg/mL (≈ 193 µM).
As to `Cc1ccc(OCc2cc(C)c3c(c2)CCN(C2CCOCC2)C3)c(-c2csc(N3CC[C@H](C(=O)O)[C@H](C)C3)n2)c1` [Compound 236], the “Metabolic stability (Qh %)” value in series [1] is given as <24%. In series [2], this molecule returned a 50% effective concentration (EC50) of 66 nM. Besides, the solubility at 24 h in series [3] (setting [4]) was 141 µg/mL (≈ 245 µM); in series [3] (setting [5]) it was 131 µg/mL (≈ 228 µM); in series [3] (setting [6]), 129 µg/mL (≈ 225 µM).
Taken in the same sequence, the figures for `COC[C@H]1N(c2nccc(-c3cccc(C)c3OCc3cc(C)c4c(c3)CCN(C3CCOCC3)C4)n2)CC2C[C@@]21C(=O)O` (some centres unmarked) [Compound 237] were <24%, 42 nM, 156 µg/mL (≈ 260 µM), 136 µg/mL (≈ 227 µM) and 143 µg/mL (≈ 238 µM).
For `CCO[C@@H]1CN(c2nc(-c3cccc(C)c3OCc3cc(F)c4c(c3)CCN(C3CCOCC3)C4)cs2)CC[C@@H]1C(=O)O` [Compound 238], the “Metabolic stability (Qh %)” value in series [1] is recorded as <24%. For the same molecule, in series [2], the EC50 was 4 nM. Moreover, the solubility at 24 h is 112 µg/mL (≈ 183 µM) in series [3] (setting [4]), 109 µg/mL (≈ 179 µM) in series [3] (setting [5]) and 109 µg/mL (≈ 178 µM) in series [3] (setting [6]).
As for `CCO[C@@H]1CN(c2cccc(-c3cccc(C)c3OCc3ccc4c(c3C)CCN(C3CCOCC3)CC4)n2)CC[C@@H]1C(=O)O` [Compound 239], the “Metabolic stability (Qh %)” value in series [1] was 87%. Besides, a half-maximal response in series [2] (EC50) required 5 nM. The solubility at 24 h in series [3] (setting [4]) was found to be 126 µg/mL (≈ 205 µM); in series [3] (setting [5]), 123 µg/mL (≈ 200 µM); in series [3] (setting [6]), 117 µg/mL (≈ 191 µM).
Consider `CCO[C@@H]1CN(c2cccc(-c3cc(C)ccc3OCc3ccc4c(c3C)CCN(C3CCOCC3)CC4)n2)CC[C@@H]1C(=O)O` [Compound 240], for which, in series [1], the “Metabolic stability (Qh %)” value was determined as 73%. Moreover, a half-maximal effect in series [2] (EC50) was put at 5 nM. Also, the values for the solubility at 24 h in series [3] (setting [4]), in series [3] (setting [5]) and in series [3] (setting [6]) were 123 µg/mL (≈ 200 µM), 118 µg/mL (≈ 193 µM) and 117 µg/mL (≈ 190 µM), respectively.
Consider `CCO[C@@H]1CN(c2nc(-c3cccc(C)c3OCc3cc(C)c4c(c3F)CCN(C3CCOCC3)C4)cs2)CC[C@@H]1C(=O)O` [Compound 241], for which the “Metabolic stability (Qh %)” value in series [1] was determined as 42.5%. Moreover, a half-maximal response in series [2] (EC50) required 2 nM. Also, the solubility at 24 h in series [3] (setting [4]) came to 129 µg/mL (≈ 207 µM); in series [3] (setting [5]), 98.5 µg/mL (≈ 158 µM); in series [3] (setting [6]), 92.2 µg/mL (≈ 148 µM).
On to `CO[C@H]1CN(c2nc(-c3cccc(C)c3OCc3cc(C)c4c(c3F)CCN(C3CCOCC3)C4)cs2)CC[C@H]1C(=O)O` [Compound 242], for which the “Metabolic stability (Qh %)” value in series [1] is recorded as <24%. This molecule gave an EC50 in series [2] of 4 nM. Also, the figures for the solubility at 24 h in series [3] (setting [4]), in series [3] (setting [5]) and in series [3] (setting [6]) were 126 µg/mL (≈ 206 µM), 116 µg/mL (≈ 191 µM) and 115 µg/mL (≈ 189 µM), respectively.
`COC[C@H]1N(c2cccc(-c3cccc(C)c3OCc3cc(F)c4c(c3)CCN(C3CCOCC3)CC4)n2)C[C@@H]2C[C@@]21C(=O)O` [Compound 243]: the “Metabolic stability (Qh %)” value in series [1] is given as <24%. This molecule also gave an EC50 in series [2] of 3 nM. The solubility at 24 h in series [3] (setting [4]) was 131 µg/mL (≈ 212 µM); in series [3] (setting [5]), 124 µg/mL (≈ 201 µM); in series [3] (setting [6]) it was 107 µg/mL (≈ 174 µM).
As for `CO[C@@H]1CN(c2nc(-c3cccc(C)c3OCc3cc(F)c4c(c3)CCN(C3CCOCC3)CC4)cs2)CC[C@@H]1C(=O)O` [Compound 244], the “Metabolic stability (Qh %)” value in series [1] was <24%. Further, the EC50 in series [2] was found to be 4 nM. Besides, the solubility at 24 h came to 118 µg/mL (≈ 193 µM) in series [3] (setting [4]), 109 µg/mL (≈ 178 µM) in series [3] (setting [5]) and 107 µg/mL (≈ 176 µM) in series [3] (setting [6]).
